According to PMC11659888, “Structural Evidence for DUF512 as a Radical S-Adenosylmethionine Cobalamin-Binding Domain” (ACS Bio & Med Chem Au, 2024):

What was measured:
[1] = molecular target: T1, pfDUF512 (Pyrococcus furiosus, UniProt Q8U2I5); experiment: X-ray crystal structure; type: binding; conditions: 5 mM SAH in crystallisation, anoxic, with [4Fe-4S], cobalamin and 5'-dA; poor density for ribosyl and methionyl moieties
T1 construct: gene PF0849; full length, 358 residues (1-357 modelled); E. coli, SUMO tag cut with Ulp1, one extra N-terminal His left; monomer; [4Fe-4S]
T1 sequence (Q8U2I5 1-357): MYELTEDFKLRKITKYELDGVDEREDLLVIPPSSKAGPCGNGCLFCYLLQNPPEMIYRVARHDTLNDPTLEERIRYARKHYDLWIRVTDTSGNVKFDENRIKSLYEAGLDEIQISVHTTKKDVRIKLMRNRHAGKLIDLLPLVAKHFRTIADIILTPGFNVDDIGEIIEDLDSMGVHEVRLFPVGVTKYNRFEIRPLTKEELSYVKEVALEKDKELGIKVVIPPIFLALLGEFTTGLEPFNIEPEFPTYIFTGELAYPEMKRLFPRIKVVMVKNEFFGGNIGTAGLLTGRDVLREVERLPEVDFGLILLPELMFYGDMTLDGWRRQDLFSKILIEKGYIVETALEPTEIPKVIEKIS

[2] = molecular target: T1, pfDUF512; experiment: methylation of bound cobalamin, MeCbl and […]'-dA detected; type: biochemical; conditions: titanium(III) citrate, 5 min
[3] = molecular target: T2, acDUF512 (Acinetobacter sp. CAG:196_36_41, UniProt Z9P1A2K5F3); experiment: methylation of bound cobalamin, MeCbl, SAH and […]'-dA quantified; type: biochemical; conditions: titanium(III) citrate, 5 min
T2 construct: full-length gene, E. coli, SUMO tag cut with Ulp1; monomer; FeS cluster
T2 sequence (Z9P1A2K5F3 1-422): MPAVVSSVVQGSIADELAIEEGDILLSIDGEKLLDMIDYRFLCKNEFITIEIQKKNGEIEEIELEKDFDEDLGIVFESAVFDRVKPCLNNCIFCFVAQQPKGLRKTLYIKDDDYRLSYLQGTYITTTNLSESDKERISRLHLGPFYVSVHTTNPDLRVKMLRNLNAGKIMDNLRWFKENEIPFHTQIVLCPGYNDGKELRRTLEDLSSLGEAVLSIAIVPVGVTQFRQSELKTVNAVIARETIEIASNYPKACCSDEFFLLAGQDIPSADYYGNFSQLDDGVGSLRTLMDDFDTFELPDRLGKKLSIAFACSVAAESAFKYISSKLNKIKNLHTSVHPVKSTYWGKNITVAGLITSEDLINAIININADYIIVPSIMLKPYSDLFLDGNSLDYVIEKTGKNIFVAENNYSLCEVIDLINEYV

[4] = molecular target: T3, csDUF512 (Clostridium sporogenes, UniProt Z9WP26CAS3); experiment: as above; type: biochemical; conditions: titanium(III) citrate, 5 min
T3 construct: full length, 444 residues (1-443 modelled); E. coli, SUMO tag cut with Ulp1; monomer; [4Fe-4S]; codon-optimized gene
T3 sequence (Z9WP26CAS3 1-443): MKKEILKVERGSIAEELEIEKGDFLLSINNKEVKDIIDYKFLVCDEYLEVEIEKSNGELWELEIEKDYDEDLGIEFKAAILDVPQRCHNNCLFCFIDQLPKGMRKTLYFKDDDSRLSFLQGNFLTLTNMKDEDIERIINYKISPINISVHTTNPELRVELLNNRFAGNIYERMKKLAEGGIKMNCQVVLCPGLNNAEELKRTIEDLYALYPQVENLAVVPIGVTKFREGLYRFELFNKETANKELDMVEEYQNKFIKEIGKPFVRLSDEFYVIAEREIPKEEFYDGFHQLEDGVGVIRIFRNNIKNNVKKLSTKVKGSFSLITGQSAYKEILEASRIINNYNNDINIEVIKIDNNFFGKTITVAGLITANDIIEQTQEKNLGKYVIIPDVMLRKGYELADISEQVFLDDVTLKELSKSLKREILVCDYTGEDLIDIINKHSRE

Row | SMILES | X-ray crystal structure [1] | methylation of bound cobalamin, MeCbl and 5'-dA detected [2] | methylation of bound cobalamin, MeCbl, SAH and 5'-dA quantified [3] | methylation of bound cobalamin, MeCbl, SAH and 5'-dA quantified [4]
1 | Nc1ncnc2c1ncn2[C@@H]1O[C@H](CSCC[C@H](N)C(=O)O)[C@@H](O)[C@H]1O [SAH, S-adenosylhomocysteine] | pfDUF512 was crystallized under anoxic conditions in the presence of SAH |  |  | 
2 | C[S+](CC[C@H](N)C(=O)O)C[C@H]1O[C@@H](n2cnc3c(N)ncnc32)[C@H](O)[C@@H]1O (stereo partly shown) [SAM, S-adenosylmethionine] |  | Upon incubating the four DUF512 proteins with SAM and titanium(III) citrate | Upon incubating the four DUF512 proteins with SAM and titanium(III) citrate | Upon incubating the four DUF512 proteins with SAM and titanium(III) citrate
